Structures are written as SMILES. pEC50: −log10 of the molar value. A value given as a limit tells only on which side of the number the result lay.

Our source for the EC50 values is US9480259B2, “Pyrazolopyrans having herbicidal and pharmaceutical properties” (BASF SE, priority 2012, dated 2016).

In this assay the target is Arabidopsis thaliana SHMT. The experiment in a line: SHMT activity assay (ED50 SHMT), coupled with N5,N10-CH2-THF dehydrogenase, NADH at 340 nm. Type of assay: biochemical. In outline:
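His-tagged SHMT purified on Ni-NTA. NADH formation followed at 340 nm for 30 min; ED50 from inhibition of initial velocity.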

The mark [1] stands for this setting: Table 2, values given as upper bounds.
The mark [2] stands for this setting: Table 2, Arabidopsis thaliana SHMT enzyme assay, values given as upper bounds.
The mark [3] stands for this setting: inhibition of initial velocity of Arabidopsis thaliana SHMT.
Where [4] appears, read: Arabidopsis thaliana SHMT enzyme assay, values given as upper bounds.

`Cc1n[nH]c2c1C(CCC#N)(c1cccc(Cl)c1)C(C#N)=C(N)O2` (stereo not shown) [Compound 2.100.] gave a pEC50 under setting [1] of over 5.00.
For `Cc1n[nH]c2c1C(c1cc(C#N)cc(OCc3nnn[nH]3)c1)(C1CCC1)C(C#N)=C(N)O2` (stereo not shown) [Compound 2.475], under setting [1], the pEC50 is over 8.00.
`CC(=O)N(C)c1cc(C#N)cc(C2(C(C)C)C(C#N)=C(N)Oc3[nH]nc(C)c32)c1` (stereo not shown) [Compound 2.553]: the negative logarithm of the EC50 (pEC50) under setting [1] was over 8.00.
`CCCC1(c2cc(Cl)cc(Cl)c2)C(C#N)=C(N)Oc2[nH]nc(C)c21` (stereo not shown) [Compound 2.89.] showed a pEC50 under setting [1] of over 6.00.
`COc1cccc(Oc2cc(Cl)cc(C3(C4CCC4)C(C#N)=C(N)Oc4[nH]nc(C)c43)c2)c1` (stereo not shown) [Compound 2.238] showed a pEC50 under setting [2] of over 8.00.
The compound `Cc1n[nH]c2c1C(c1cc3ccc(Cl)cc3s1)(C1CCC1)C(C#N)=C(N)O2` (stereo not shown) [Compound 4.63] gave a pEC50 under setting [3] of over 6.00.
As for `CCCC1(c2cc(Cl)cc(C#N)c2)C(C#N)=C(N)Oc2[nH]nc(C(F)F)c21` (stereo not shown) [Compound 2.608], under setting [1], the pEC50 is over 8.00.
In the case of `Cc1n[nH]c2c1C(c1cc(Br)cc(C#N)c1)(C1CC=CC1)C(C#N)=C(N)O2` (stereo not shown) [Compound 2.377], the pEC50 under setting [2] was over 8.00.
Take `Cc1n[nH]c2c1C(c1ccc(CCCc3nnn[nH]3)c(Cl)c1)(C1CCC1)C(C#N)=C(N)O2` (stereo not shown) [Compound 2.678]: the pEC50 under setting [4] was over 8.00.
Regarding `COC(=O)c1ccc(-c2cc(C#N)cc(C3(C4CCC4)C(C#N)=C(N)Oc4[nH]nc(OC)c43)c2)cc1` (stereo not shown) [Compound 2.454], the pEC50 under setting [1] was over 6.00.
The compound `CCCCCCOc1ccc(C2(CC)C(C#N)=C(N)Oc3[nH]nc(C)c32)cc1` (stereo not shown) [Compound 2.36.] gave a pEC50 under setting [1] of over 5.00.
For the compound `Cc1n[nH]c2c1C(c1cc(Cl)cc(-c3ccc(C(=O)O)cc3)c1)(C1CCC1)C(C#N)=C(N)O2` (stereo not shown) [Compound 2.483], under setting [1], the pEC50 is over 8.00.
Turning to `Cc1n[nH]c2c1C(c1cc(-c3ccco3)cs1)(C1CCC1)C(C#N)=C(N)O2` (stereo not shown) [Compound 4.41], the pEC50 under setting [3] was over 8.00.
Compound `CCC1(c2ccc(OC(C)(C)C)cc2)C(C#N)=C(N)Oc2[nH]nc(C)c21` (racemic) [Compound 2.27.] had a pEC50 under setting [1] of over 5.00.
Still for that read-out and setting: in the case of `Cc1n[nH]c2c1C(c1cc(F)c(O)c(F)c1)(C1CCC1)C(C#N)=C(N)O2` (stereo not shown) [Compound 2.449] it was over 7.00; in that of `COc1c(Br)cc(C2(C3CCC3)C(C#N)=C(N)Oc3[nH]nc(C)c32)cc1C#N` (stereo not shown) [Compound 2.492], over 8.00.
Under setting [2], `Cc1n[nH]c2c1C(c1cc(Cl)cc(C#N)c1)(C(C)C)C(C#N)=C(N)O2` (stereo not shown) [Compound 2.345] showed a pEC50 of over 8.00.
For the compound `CCC1(c2cc(Cl)cc(C#N)c2)C(C#N)=C(N)Oc2[nH]nc(C)c21` (stereo not shown) [Compound 2.529], under setting [1], the pEC50 is over 8.00.
As for `Cc1n[nH]c2c1C(c1cccc(OC(F)F)c1)(C1CCC1)C(C#N)=C(N)O2` (stereo not shown) [Compound 2.264], the pEC50 under setting [2] was over 8.00.
Regarding `Cc1n[nH]c2c1C(c1ccc(-c3cccc(C(F)(F)F)c3)s1)(C1CC1)C(C#N)=C(N)O2` (stereo not shown) [Compound 4.53], the pEC50 under setting [3] was over 7.00.
Under setting [4], `Cc1n[nH]c2c1C(c1cc(Cl)cc(SCC#N)c1)(C1CCC1)C(C#N)=C(N)O2` (stereo not shown) [Compound 2.665] had a pEC50 of over 8.00.
As for `Cc1n[nH]c2c1C(c1cc(Cl)cc(Oc3ccc(Cl)cc3)c1)(C1CCC1)C(C#N)=C(N)O2` (stereo not shown) [Compound 2.341], the pEC50 under setting [2] is over 8.00.
Under setting [1], `Cc1n[nH]c2c1C(c1cc(C(F)(F)F)cc(C(F)(F)F)c1)(C1CCC1)C(C#N)=C(N)O2` (stereo not shown) [Compound 2.191.] showed a pEC50 of over 7.00.
Same read-out and setting: in the case of `CCC1(c2cc(Cl)cc(Br)c2)C(C#N)=C(N)Oc2[nH]nc(C)c21` (stereo not shown) [Compound 2.468] it was over 8.00.
On to `COc1ccc(C2(C(C)C)C(C#N)=C(N)Oc3[nH]ncc32)cc1Br` (stereo not shown) [Compound 2.322], for which the negative-log EC50 (pEC50) under setting [2] is over 8.00.
Consider `Cc1n[nH]c2c1C(c1ccc(CCC(=O)O)c(Cl)c1)(C1CCC1)C(C#N)=C(N)O2` (stereo not shown) [Compound 2.542], for which the pEC50 under setting [1] was over 7.00.
Turning to `Cc1n[nH]c2c1C(c1cc(C#N)cc(-c3ccccc3)c1)(C1CCC1)C(C#N)=C(N)O2` (stereo not shown) [Compound 2.323], the pEC50 under setting [2] is over 7.00.
In the case of `Cc1n[nH]c2c1C(c1cc(-c3nnn[nH]3)cc(N(C)C(=O)CCC#N)c1)(C1CCC1)C(C#N)=C(N)O2` (stereo not shown) [Compound 2.668], the pEC50 under setting [4] is over 7.00.
`Cc1n[nH]c2c1C(c1cc(Cl)cc(-c3ccsc3)c1)(C1CC1)C(C#N)=C(N)O2` (stereo not shown) [Compound 2.275]: under setting [2], the pEC50 was over 8.00.
Under setting [1], `Cc1n[nH]c2c1C(c1cc(O)cc(Cl)c1)(C1CCC1)C(C#N)=C(N)O2` (stereo not shown) [Compound 2.508] gave a pEC50 of over 5.00.
The same measure, in the same setting: in the case of `CCC1(c2cccc(C(F)(F)F)c2)C(C#N)=C(N)Oc2[nH]nc(COC)c21` (racemic) [Compound 2.97.] it was over 5.00.
For `Cc1n[nH]c2c1C(c1cc(F)c3c(c1)C=CC(C)(C)O3)(C1CCC1)C(C#N)=C(N)O2` (stereo not shown) [Compound 4.23], under setting [3], the pEC50 is over 8.00.
Under setting [2], `CC(C)C1(c2cc(Cl)cc(C(F)(F)F)c2)C(C#N)=C(N)Oc2[nH]ncc21` (stereo not shown) [Compound 2.315] showed a pEC50 of over 8.00.
Regarding `COc1ccc2cc(C3(C4CCC4)C(C#N)=C(N)Oc4[nH]nc(C)c43)ccc2c1` (stereo not shown) [Compound 4.36], the pEC50 under setting [3] is over 8.00.
Under setting [4], `Cc1n[nH]c2c1C(c1ccc(CC#N)c(C#N)c1)(C1CCC1)C(C#N)=C(N)O2` (stereo not shown) [Compound 2.672] showed a pEC50 of over 8.00.
On to `CCC1(c2cc(C#N)cc(C(F)(F)F)c2)C(C#N)=C(N)Oc2[nH]nc(C(F)F)c21` (stereo not shown) [Compound 2.606], for which, under setting [1], the pEC50 is over 8.00.
As to `Cc1n[nH]c2c1C(c1ccc(F)c(C#N)c1)(C1CCC1)C(C#N)=C(N)O2` (stereo not shown) [Compound 2.269], the pEC50 under setting [2] was over 8.00.
Turning to `Cc1n[nH]c2c1C(c1cccc(C#N)c1)(C1CCC1)C(C#N)=C(N)O2` (stereo not shown) [Compound 2.192.], the pEC50 under setting [1] is over 7.00.
On to `Cc1n[nH]c2c1C(c1ccc(-c3cccc(Cl)c3)s1)(C1CCC1)C(C#N)=C(N)O2` (stereo not shown) [Compound 4.6], for which the pEC50 under setting [3] is over 8.00.
`Cc1n[nH]c2c1C(c1ccc(CCC(=O)O)c(C(F)(F)F)c1)(C1CCC1)C(C#N)=C(N)O2` (stereo not shown) [Compound 2.543] had a pEC50 under setting [1] of over 7.00.
`Cc1n[nH]c2c1C(c1ccc(-c3cccc(F)c3)s1)(C1CC1)C(C#N)=C(N)O2` (stereo not shown) [Compound 4.56] showed a pEC50 under setting [3] of over 7.00.
Under setting [2], `COc1ccc(C2(C3CCC3)C(C#N)=C(N)Oc3[nH]ncc32)cc1Cl` (stereo not shown) [Compound 2.253] had a pEC50 of over 8.00.
`Cc1n[nH]c2c1C(c1cc(C#N)cc(N(C)C(=O)CCC(=O)O)c1)(C1CCC1)C(C#N)=C(N)O2` (stereo not shown) [Compound 2.632] gave a pEC50 under setting [1] of over 8.00.
In turn, `Cc1n[nH]c2c1C(c1cc(Cl)cc(-c3cccc(Cl)c3)c1)(C1CCC1)C(C#N)=C(N)O2` (stereo not shown) [Compound 2.227] had a pEC50 under setting [2] of over 8.00.
Compound `Cc1n[nH]c2c1C(c1ccc(Cl)cc1)(C1CCC1)C(C#N)=C(N)O2` (stereo not shown) [Compound 2.138.] gave a pEC50 under setting [1] of over 6.00.
The same measure, in the same setting: in the case of `CC(C)c1n[nH]c2c1C(c1ccc(Cl)cc1)(C1CC1)C(C#N)=C(N)O2` (stereo not shown) [Compound 2.128.] it was over 5.00; in that of `CCOC(=O)COc1ccc(-c2cc(C#N)cc(C3(C4CCC4)C(C#N)=C(N)Oc4[nH]nc(C)c43)c2)cc1` (stereo not shown) [Compound 2.536], over 8.00.
Under setting [3], `Cc1n[nH]c2c1C(c1ccc3c(c1)nnn3C)(C1CCC1)C(C#N)=C(N)O2` (stereo not shown) [Compound 4.49] gave a pEC50 of over 7.00.
`COC(=O)c1cc(-c2cc(Cl)cc(C3(C4CCC4)C(C#N)=C(N)Oc4[nH]nc(C)c43)c2)ccc1Cl` (racemic) [Compound 2.514] showed a negative-log EC50 (pEC50) under setting [1] of over 8.00.
Under setting [1], `Cc1n[nH]c2c1C(c1cccc(Cl)c1)(C(F)(F)F)C(C#N)=C(N)O2` (stereo not shown) [Compound 2.87.] showed a pEC50 of over 5.00.
As for `Cc1n[nH]c2c1C(c1ccc(Cl)c(Cl)c1)(C1CCC1)C(C#N)=C(N)O2` (stereo not shown) [Compound 2.193.], the negative logarithm of the EC50 (pEC50) under setting [1] was over 8.00.
Under setting [1], `Cc1n[nH]c2c1C(c1cc(O)cc(C#N)c1)(C1CCC1)C(C#N)=C(N)O2` (stereo not shown) [Compound 2.626] had a pEC50 of over 7.00.
On the same count and under the same terms, in the case of `CCc1n[nH]c2c1C(c1ccc(OC)c(Cl)c1)(C1CC1)C(C#N)=C(N)O2` (stereo not shown) [Compound 2.151.] it was over 6.00; in that of `COC(=O)c1cc(Cl)cc(-c2cc(C#N)cc(C3(C4CCC4)C(C#N)=C(N)Oc4[nH]nc(C)c43)c2)c1` (stereo not shown) [Compound 2.517], over 8.00.
In the case of `Cc1n[nH]c2c1C(c1cc(Cl)cc(Oc3ccccc3)c1)(C1CC1)C(C#N)=C(N)O2` (stereo not shown) [Compound 2.153.], the pEC50 under setting [1] is over 7.00.
As to `COc1c(Cl)cc(C2(C3CCC3)C(C#N)=C(N)Oc3[nH]ncc32)cc1Cl` (stereo not shown) [Compound 2.293], the pEC50 under setting [2] was over 8.00.
In turn, `Cc1n[nH]c2c1C(c1ccc(-c3ccco3)s1)(C1CCC1)C(C#N)=C(N)O2` (stereo not shown) [Compound 4.3] showed a pEC50 under setting [3] of over 8.00.
In turn, `Cc1n[nH]c2c1C(c1cc(Cl)cc(N(C)C(=O)CCCC#N)c1)(C1CCC1)C(C#N)=C(N)O2` (stereo not shown) [Compound 2.700] had a pEC50 under setting [4] of over 7.00.
In the case of `Cc1n[nH]c2c1C(c1cc(C(=O)O)cs1)(C1CCC1)C(C#N)=C(N)O2` (stereo not shown) [Compound 4.66], the pEC50 under setting [3] is over 6.00.
With `Cc1csc(C2(C3CC3)C(C#N)=C(N)Oc3[nH]nc(C)c32)c1` (racemic) [Compound 4.70], the pEC50 under setting [3] was over 6.00.
As to `Cc1n[nH]c2c1C(c1ccc(CC(=O)O)c(C#N)c1)(C1CCC1)C(C#N)=C(N)O2` (racemic) [Compound 2.541], the negative-log EC50 (pEC50) under setting [1] was over 6.00.
`CCC1(c2ccc(F)c(C(F)(F)F)c2)C(C#N)=C(N)Oc2[nH]nc(C)c21` (stereo not shown) [Compound 2.65.]: the pEC50 under setting [1] is over 6.00.
The compound `Cc1n[nH]c2c1C(c1cc(CN)cc(N(C)C(=O)CCCC(=O)O)c1)(C(C)C)C(C#N)=C(N)O2` (stereo not shown) [Compound 2.689] showed a pEC50 under setting [4] of over 6.00.
Compound `CCC1(c2cc(C(F)(F)F)cc(C(F)(F)F)c2)C(C#N)=C(N)Oc2[nH]nc(C)c21` (stereo not shown) [Compound 2.47.] had a pEC50 under setting [1] of over 7.00.
As for `Cc1n[nH]c2c1C(c1cc(Cl)cc(-c3cccc(NS(C)(=O)=O)c3)c1)(C1CCC1)C(C#N)=C(N)O2` (racemic) [Compound 2.527], under setting [1], the pEC50 was over 8.00.
The same measure, in the same setting: with `N#CC1=C(N)Oc2[nH]nc(C(F)F)c2C1(c1cccc(C(F)(F)F)c1)C1CCC1` (stereo not shown) [Compound 2.175.] the figure was over 6.00.
Under setting [2], `Cc1n[nH]c2c1C(c1cc(C#N)cc(-c3ccsc3)c1)(C1CCC1)C(C#N)=C(N)O2` (stereo not shown) [Compound 2.329] gave a pEC50 of over 8.00.
